Results: patent US11814352B2, “Salts formed by 2-(1-acyloxy-n-pentyl) benzoic acid and basic amino acid or aminoguanidine, and preparation method and application thereof” (JIANGSU KANION PHARMACEUTICAL CO., LTD., priority 2018, dated 2023)
Read-outs that look alike come from different tables or passages of the source.

Legend:
[1] = tested on: AA induced platelet aggregation; assay: In vitro anti-platelet aggregation, AA induced (turbidimetry, PRP); assay type: cell-based, rabbits
Procedure: (§1) The animals were used for experiments after 1 week.
(§2) The common carotid artery was separated, and a polyethylene tube was inserted into the common carotid artery to collect blood. […] The upper beige suspension was pipetted to obtain the platelet-rich plasma (PRP). […] The PRP was adjusted with the PPP to make the platelet count at 1×10^8/mL.
(§3) 260 μL of platelet-rich plasma (PRP) was added into a turbidimetric tube. Then 10 μL of test compounds with different concentrations, positive control drugs or normal saline were separately added, and the plasma was incubated at 37° C. for 5 min. Then 30 μL of inducers were added in sequence. The final concentration of an inducer ADP is 10 μM, and the final concentration of an inducer AA is 1 mM. […] Inhibition rate of platelet aggregation (IRPA)=(platelet aggregation rate of the control group−platelet aggregation rate of the experimental group)/platelet aggregation rate of the control group×100%.

[2] = tested on: ADP induced platelet aggregation; assay: In vitro anti-platelet aggregation, ADP induced (turbidimetry, PRP); assay type: cell-based, rabbits
Procedure: as §1, §2, §3

[3] = tested on: MCAO rats; assay: Cerebral infarction, cerebral edema and nerve function of rats with focal cerebral ischemia (MCAO); assay type: in vivo, SD rats; conditions: for inhibition at 10 mg/kg/day: Rattus norvegicus
Procedure: The total number of the animals was 88.
Sham operation group: equal volume of normal saline (containing 1% DMSO) (iv. 3 days), TTC, cerebral edema and neurological function score (n=8); […]
The middle cerebral arteries of the rats were blocked by a suture-occluded method, and reperfused after 2 h. […] All drugs were formulated into normal saline solutions containing 1% DMSO for administration, and the duration of administration was controlled at approximately 1 min. […] 2 h after the last administration, the neurological defect scores were firstly obtained, and then the rats of each group were sacrificed. The whole brains were taken out and weighed (wet weight), TTC stained, and dried to determine the effects of the compounds on cerebral infarction and cerebral edema.
2 h after the last administration, the neurological defects of the animals were graded and scored by the Longa's method.
After the neurobehavioral examination was completed, four coronal incisions were made on the whole brains of the rats on the optic chiasma and 2 mm anteroposterior positions of the optic chiasma. After the whole brains were cut into five slices, the brain slices were quickly placed in 5 ml of phosphate buffer solution containing 2% TTC, and incubated at 37° C. in the dark. In the incubation process, the brain slices were turned once every 5 min. After 10 min of incubation, the brain slices were taken out and pictures were taken with a digital camera (Olympus C-4000, Japan).
The calculation formula of brain water content is as follows: Water content of brain tissue (%)=(wet weight of brain tissue−dry weight of brain tissue)/wet weight of brain tissue×100%; Cerebral edema rate (%)=water content of brain tissue of each group (%)−water content of brain tissue of sham operation group (%)/water content of brain tissue of sham operation group (%)×100%; Inhibition rate of cerebral edema (%)=(rate of cerebral edema of model group (%)−rate of cerebral edema of administration group (%))/rate of cerebral edema of model group (%)×100%.

[4] = tested on: arteriovenous bypass thrombosis in rats; assay: Effect on arteriovenous bypass thrombosis in rats; assay type: in vivo, SD rats; conditions: 10 mg/kg/day tail vein 7 days; for inhibition at 10 mg/kg/day: Rattus norvegicus, 168 h, vs model group
Procedure: Male SD rats, weighing 250-280 g, purchased from Beijing Vital River Laboratory Animal Technology Co., Ltd., raised in an SPF breeding environment with indoor temperature controlled at 23±2° C., and allowed to freely eat and drink. The total number of the animals is 64.
Model group: injected with the same volume of normal saline (containing 1% DMSO) through the tail vein, and administered continuously for 7 days. The test was started 2 h after the last dose (n=8).
The dose of all drugs was 10 mg/kg/day. The drugs were formulated into normal saline solutions containing 1% DMSO, and injected through the tail vein for 7 consecutive days. The test was started 2 hours after the last dose (n=8).
The rats were intraperitoneally injected with a 3% pentobarbital sodium solution (30 mg/kg). After anesthesia, the rats were immobilized in the supine position, and a median cervical incision was made to separate the right common carotid artery and left external jugular vein. A 6 cm long suture was put in the middle of a polyethylene tube (the suture needs to be weighed before being put in the tube), and the polyethylene tube was filled with heparin saline (50 U/mL). The polyethylene tube was inserted into the separated blood vessels to make the artery and vein form a loop. After 15 min of circulation of the blood flow, the suture was taken out, and the suture with thrombus was collected and weighed immediately. Then, after the suture was dried at room temperature for 24 h, the dry weight was determined. The total weight minus the weight of the suture was the wet weight of the thrombus, and the dry weight minus the weight of the suture was the dry weight of the thrombus.

[5] = read-out: IC50 AA (1 mM), rabbit PRP, inducer AA 1 mM, 37° C.
[6] = read-out: IC50 ADP (10 μM), rabbit PRP, inducer ADP 10 μM, 37° C.
[7] = iv 2 h after the beginning of reperfusion, 5 mg/kg
[8] = iv 2 h after the beginning of reperfusion, 10 mg/kg
[9] = iv 2 h after the beginning of reperfusion, 20 mg/kg
[10] = iv at the beginning of reperfusion, 5 mg/kg
[11] = iv at the beginning of reperfusion, 10 mg/kg
[12] = iv at the beginning of reperfusion, 20 mg/kg
[13] = Oryctolagus cuniculus, Platelet, read-out: IC50 AA (1 mM), rabbit PRP, inducer AA 1 mM, 37° C.
[14] = Oryctolagus cuniculus, Platelet, read-out: IC50 ADP (10 μM), rabbit PRP, inducer ADP 10 μM, 37° C.
[15] = MCAO rats, 10 mg/kg/day iv 3 days (combinations equimolar), first dose 2 h after reperfusion

Question: With `CCCCC(OC(C)=O)c1ccccc1C(=O)O` (racemic) [(R/S)-APB, (R/S)-2-(1-acetoxy-n-pentyl)benzoic acid] as the compound, how does the IC50 [1, 5] read?
Answer: Its IC50 is 470 ± 40 µM.

Question: And the IC50 [2, 6]?
Answer: Its IC50 is 810 ± 40 µM.

Question: `CCCCC(O)c1ccccc1C(=O)O.N=C(N)NCCC[C@H](N)C(=O)O` (racemic) [AHPB, L-Arginine (R/S)-2-(1-Hydroxy-n-Pentyl) Benzoate] was tested. Which IC50 [1, 5] did it give?
Answer: Its IC50 is 340 ± 40 µM.

Question: And the IC50 [2, 6]?
Answer: Its IC50 is 980 ± 210 µM.

Question: And the Cerebral edema [3, 7]?
Answer: Its Cerebral edema is 6.50 ± 1.86%.

Question: What about the Infarct volume [3, 7] of the same compound?
Answer: Its Infarct volume is 37.54 ± 6.94%.

Question: What about the “Inhibition rate of cerebral edema” value [3, 7] of the same compound?
Answer: Its value is 31.12%.

Question: What about the “Inhibition rate of infarct volume” value [3, 7] of the same compound?
Answer: The value was 24.34%.

Question: And the Cerebral edema [3, 8]?
Answer: The Cerebral edema was 3.03 ± 2.87%.

Question: And the Infarct volume [3, 8]?
Answer: Its Infarct volume is 25.70 ± 4.75%.

Question: And the “Inhibition rate of cerebral edema” value [3, 8]?
Answer: The value was 67.94%.

Question: What about the “Inhibition rate of infarct volume” value [3, 8] of the same compound?
Answer: The value was 48.19%.

Question: What about the Cerebral edema [3, 9] of the same compound?
Answer: The Cerebral edema was 1.64 ± 3.36%.

Question: And the Infarct volume [3, 9]?
Answer: Its Infarct volume is 23.56 ± 5.29%.

Question: What about the “Inhibition rate of cerebral edema” value [3, 9] of the same compound?
Answer: Its value is 82.57%.

Question: And the “Inhibition rate of infarct volume” value [3, 9]?
Answer: Its value is 52.51%.

Question: What about the Cerebral edema [3, 10] of the same compound?
Answer: The Cerebral edema was 5.94 ± 2.45%.

Question: And the Infarct volume [3, 10]?
Answer: Its Infarct volume is 29.98 ± 4.99%.

Question: And the “Inhibition rate of cerebral edema” value [3, 10]?
Answer: The value was 38.82%.

Question: And the “Inhibition rate of infarct volume” value [3, 10]?
Answer: The value was 39.06%.

Question: What about the Cerebral edema [3, 11] of the same compound?
Answer: Its Cerebral edema is 2.01 ± 2.91%.

Question: And the Infarct volume [3, 11]?
Answer: Its Infarct volume is 19.83 ± 3.95%.

Question: What about the “Inhibition rate of cerebral edema” value [3, 11] of the same compound?
Answer: Its value is 79.34%.

Question: What about the “Inhibition rate of infarct volume” value [3, 11] of the same compound?
Answer: Its value is 59.69%.

Question: And the Cerebral edema [3, 12]?
Answer: Its Cerebral edema is 2.08 ± 4.58%.

Question: What about the Infarct volume [3, 12] of the same compound?
Answer: The Infarct volume was 17.71 ± 4.65%.

Question: And the “Inhibition rate of cerebral edema” value [3, 12]?
Answer: The value was 78.57%.

Question: What about the “Inhibition rate of infarct volume” value [3, 12] of the same compound?
Answer: The value was 64.00%.

Question: And the “Effects of improving cerebral infarction, cerebral edema and neurological function compared with NBP (5 mg/kg)” value ([3]; low-dose 5 mg/kg iv, at reperfusion or 2 h after)?
Answer: Its value is “no significant difference”.

Question: And the “Improving the neurological function compared with NBP (5 mg/kg)” value ([3]; middle and high doses 10, 20 mg/kg iv)?
Answer: Its value is “equivalent to NBP (5 mg/kg)”.

Question: `CCCCC(OC(=O)CC)c1ccccc1C(=O)O` (racemic) [I2, L-Arginine (R/S)-2-(1-Propionyloxy-n-Pentyl) Benzoate] was tested. Which IC50 [1, 13] did it give?
Answer: The IC50 was 190 ± 20 µM.

Question: What about the IC50 [2, 14] of the same compound?
Answer: The IC50 was 650 ± 40 µM.

Question: With `CCCCC(OC(=O)CCC)c1ccccc1C(=O)O` (racemic) [I3, L-Arginine (R/S)-2-(1-N-Butyryloxy-n-Pentyl) Benzoate] as the compound, how does the IC50 [1, 13] read?
Answer: The IC50 was 520 ± 30 µM.

Question: What about the IC50 [2, 14] of the same compound?
Answer: The IC50 was 1260 ± 70 µM.

Question: What does the source list for `CCCCC(OC(=O)c1ccccc1)c1ccccc1C(=O)O` (racemic) [I4, L-Arginine (R/S)-2-(1-Benzoyloxy-n-Pentyl) Benzoate]?
Answer: IC50 [1, 5]: 170 ± 70 µM; IC50 [2, 6]: 820 ± 50 µM

Question: For `CCCCC(OC(C)=O)c1ccccc1C(=O)O` (racemic) [I5, L-Lysine (R/S)-2-(1-Acetoxy-n-Pentyl) Benzoate], which IC50 [1, 13] is on record?
Answer: Its IC50 is 460 ± 30 µM.

Question: And the IC50 [2, 14]?
Answer: The IC50 was 1150 ± 80 µM.

Question: `CCCCC(OC(C)=O)c1ccccc1C(=O)O.N[C@@H](Cc1c[nH]cn1)C(=O)O` (racemic) [I6, L-Histidine (R/S)-2-(1-Acetoxy-n-Pentyl) Benzoate] was tested. Which IC50 [1, 5] did it give?
Answer: Its IC50 is 140 ± 10 µM.

Question: What about the IC50 [2, 6] of the same compound?
Answer: Its IC50 is 770 ± 50 µM.

Question: For `CCCCC(OC(C)=O)c1ccccc1C(=O)O.N=C(N)NN` (racemic) [I7, Aminoguanidine (R/S)-2-(1-Acetoxy-n-Pentyl) Benzoate], which IC50 [1, 5] is on record?
Answer: The IC50 was 280 ± 70 µM.

Question: And the IC50 [2, 6]?
Answer: The IC50 was 1180 ± 60 µM.

Question: Which IC50 [1, 13] does the source give for `CCCC[C@@H](OC(C)=O)c1ccccc1C(=O)O` [(R)-APB, (R)-2-(1-acetoxy-n-pentyl)benzoic acid] here?
Answer: Its IC50 is 190 ± 20 µM.

Question: And the IC50 [2, 14]?
Answer: The IC50 was 760 ± 70 µM.

Question: `CCCC[C@H]1OC(=O)c2ccccc21` [(R)-NBP, (R)-butylphthalide] was tested. Which IC50 [1, 5] did it give?
Answer: The IC50 was 660 ± 70 µM.

Question: And the IC50 [2, 6]?
Answer: Its IC50 is 1600 ± 150 µM.

Question: What does the source list for `CC1=NN(c2ccccc2)C(=O)C1` [Edaravone]?
Answer: Cerebral edema [3, 15]: 4.49 ± 4.84%; Infarct volume [3, 15]: 14.29 ± 2.58%; inhibition at 10 mg/kg/day ([3]; MCAO rats, 10 mg/kg/day iv 3 days (combinations equimolar), first dose 2 h after reperfusion, read-out: Inhibition rate of cerebral edema): 72%; inhibition at 10 mg/kg/day ([3]; MCAO rats, 10 mg/kg/day iv 3 days (combinations equimolar), first dose 2 h after reperfusion, read-out: Inhibition rate of infarct volume): 65.8%; Dry weight of thrombus ([4]; 2 h after last dose): 8.23 ± 0.53; Wet weight of thrombus ([4]; 2 h after last dose): 24.95 ± 1.20; inhibition at 10 mg/kg/day ([4]; read-out: Inhibition rate (dry weight of thrombus)): 18.1%; inhibition at 10 mg/kg/day ([4]; read-out: Inhibition rate (wet weight of thrombus)): 31.1%

Question: For `CCCC[C@@H](OC(C)=O)c1ccccc1C(=O)O.N=C(N)NN` [I7r, Aminoguanidine (R)-2-(1-Acetoxy-n-Pentyl) Benzoate], which IC50 [1, 5] is on record?
Answer: Its IC50 is 210 ± 10 µM.

Question: And the IC50 [2, 6]?
Answer: Its IC50 is 940 ± 50 µM.

Question: Which results are given for `CCCC[C@H](OC(C)=O)c1ccccc1C(=O)O.N=C(N)NN` [I7s, Aminoguanidine (S)-2-(1-Acetoxy-n-Pentyl) Benzoate]?
Answer: IC50 [1, 5]: 120 ± 10 µM; IC50 [2, 6]: 680 ± 30 µM; Cerebral edema [3, 15]: 12.34 ± 4.57%; Infarct volume [3, 15]: 24.83 ± 2.02%; Inhibition rate of cerebral edema [3, 15]: 23.07%; Inhibition rate of infarct volume [3, 15]: 40.67%

Question: Which results are given for `N=C(N)NCCC[C@H](N)C(=O)O` [L-arginine]?
Answer: IC50 [1, 13]: 5130 ± 650 µM; IC50 [2, 14]: 5860 ± 690 µM
